In patent publication USRE37781E1, “Substituted cyclic carbonyls and derivatives thereof useful as retroviral protease inhibitors” (DuPont Pharmaceuticals Company, priority 1991, dated 2002):
pKi: −log10 of the molar value. Like-named read-outs stand apart in the source and are kept apart here.

Key:
HIV-1 (RF) in MT-2 cells = test: microbe, parasite or virus in culture; format: cell-based
Summary of the method: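 Read-out: gag and pol viral RNA captured by 5′-biotinylated oligonucleotides on streptavidin-coated wells, detected with alkaline phosphatase-linked reporter oligonucleotides, calibrated against BH10 in vitro transcripts. Virus stocks (RF, MN, IIIB) come from H9 cultures; MT-2 host cells kept in RPMI 1640, 5% FCS.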

HIV protease = biological target: T1, HIV protease (Human immunodeficiency virus type 1 group M subtype B, UniProt P04585); test: biochemical; parameters: species or system HIV-1
T1 construct: plasmid containing HIV protease under the control of an inducible T7 promoter; made in house; host or cells: E. coli (inclusion bodies, T7 promoter)
Method: HIV Protease Inhibition Assay—Spectroscopic Method
Inclusion bodies were solubilized in 8M urea, 50 mM tris pH 8.0. Protease activity was recovered by dilution 20-fold into buffer containing 50 mM sodium acetate pH 5.5, 1 mM EDTA, 10% glycerol and 5% ethylene glycol. Enzyme was used at a final concentration of 1.0-10 ug/ml.
Stock solutions of 10 mM were prepared in DMSO.
All further dilutions were done in DMSO.

[1] = Human immunodeficiency virus 1, MT2, 24 h, Table 1d, upper part, read-out: IC90
[2] = Table 1d, upper part, read-out: Ki
[3] = Human immunodeficiency virus 1, MT2, Table 1e, read-out: IC90
[4] = Human immunodeficiency virus 1, MT2, Table 2A, read-out: IC90
[5] = Human immunodeficiency virus 1, MT2, second table headed Table 2A, read-out: IC90
[6] = second table headed Table 2A, read-out: Ki

With `O=C1N(Cc2cccc(OCc3ccccc3)c2)C(Cc2ccccc2)C(O)C2C(Cc3ccccc3)N12` (stereo not drawn) [Example 21E] the IC90 (HIV-1 (RF) in MT-2 cells; Table 2j) was “++/+ (The ++/+ is used in the cases where an IC90 was determined to be >50 μg/mL)” and the pKi (HIV protease; Table 2j, read-out: Ki) was < 6.00.

`CC(=O)OC1C(O)C(Cc2ccccc2)N(Cc2ccc3ccccc3c2)C(=O)N(Cc2ccc3ccccc3c2)C1Cc1ccccc1` (stereo not drawn) [Example 7K] was tested, and the IC90 (HIV-1 (RF) in MT-2 cells; [1]) was > 100 µg/mL and the pKi (HIV protease; [2]) was 6.00 to 8.00.

For `O=C1N(Cc2cccc(CO)c2)[C@H](CCc2ccccc2)[C@@H](O)[C@@H](Cc2ccccc2)N1Cc1cccc(CO)c1` [Example 8Z], the IC90 (HIV-1 (RF) in MT-2 cells; [3]) was < 10 µg/mL and the pKi (HIV protease; Ki) was > 8.00.

In the case of `C=CCN1C(=O)N(CCCC)C(Cc2ccccc2)C2OC(=O)OC2C1Cc1ccccc1` (stereo not drawn) [Example 7E], the IC90 (HIV-1 (RF) in MT-2 cells; [1]) was < 10 µg/mL and the pKi (HIV protease; Ki) was 6.00 to 8.00.

For `CC(=O)OC1C(Cc2ccccc2)N(Cc2ccccc2)C(=O)N2C(Cc3ccccc3)C12` (stereo not drawn) [Example 21B], the IC90 (HIV-1 (RF) in MT-2 cells; Table 2j) was “++/+ (The ++/+ is used in the cases where an IC90 was determined to be >50 μg/mL)” and the pKi (HIV protease; Table 2j, read-out: Ki) was < 6.00.

`CC(=O)c1cccc(CN2C(=O)N(Cc3cccc(C(C)=O)c3)[C@H](Cc3ccccc3)[C@H](O)[C@H]2CCc2ccccc2)c1` [Example 8P] was tested, and the IC90 (HIV-1 (RF) in MT-2 cells; [3]) was < 10 µg/mL and the pKi (HIV protease; Ki) was > 8.00.

`C=CCN1C(=O)N(CC=C)[C@H](Cc2ccccc2)[C@H](O)[C@H]1[C@H](O)Cc1ccccc1` [Example 8AA] showed a pKi (HIV protease; Table 1e, read-out: Ki) of 6.00 to 8.00.

For `N#CN=C1N(Cc2ccc(C#N)cc2)C(Cc2ccccc2)C(O)C(O)C(Cc2ccccc2)N1Cc1ccc(C#N)cc1` (stereo not drawn) [Example 1CG], the IC90 (HIV-1 (RF) in MT-2 cells; Human immunodeficiency virus 1, MT2, Table 1c, read-out: IC90) was < 10 µg/mL and the pKi (HIV protease; Ki) was 6.00 to 8.00.

For `COCCOCCN1C(=O)N(CCOCCOC)C(Cc2ccccc2)C(O)C(O)C1Cc1ccccc1` (stereo not drawn) [Example 1J], the pKi (HIV protease; Table 1a, read-out: Ki) was < 6.00.

`O=C1N(CC=Cc2ccccc2)C(Cc2ccccc2)C(O)C(O)C(Cc2ccccc2)N1CC=Cc1ccccc1` (stereo not drawn) [Example 1AU] was tested, and the pKi (HIV protease; Table 1a, read-out: Ki) was > 8.00.

In the case of `O=C1N(Cc2ccccc2)C(Cc2ccccc2)C(O)C(O)C(Cc2ccccc2)N1CC1CC1` (stereo not drawn) [Example 2F], the IC90 (HIV-1 (RF) in MT-2 cells; [4]) was < 10 µg/mL, the IC90 (HIV-1 (RF) in MT-2 cells; [5]) was < 10 µg/mL and the pKi (HIV protease; Table 2A, read-out: Ki) was > 8.00. The pKi (HIV protease; [6]) was > 8.00.

For `N#Cc1cccc(CN2C(=O)N3C(Cc4ccccc4)C3C(O)C2Cc2ccccc2)c1` (stereo not drawn) [Example 21F], the IC90 (HIV-1 (RF) in MT-2 cells; Table 2j) was “+ (+=>100 μg/mL)” and the pKi (HIV protease; Table 2j, read-out: Ki) was < 6.00.

`C=CCN1C(=O)N(CC=C)C(Cc2ccccc2)C2OS(=O)OC2C1Cc1ccccc1` (stereo not drawn) [Example 7C] was tested, and the IC90 (HIV-1 (RF) in MT-2 cells; [1]) was < 10 µg/mL and the pKi (HIV protease; [2]) was > 8.00.

`O=C1OC2C(O1)C(Cc1ccccc1)N(CC1CC1)C(=O)N(CC1CC1)C2Cc1ccccc1` (stereo not drawn) [Example 7G] was tested, and the IC90 (HIV-1 (RF) in MT-2 cells; [1]) was < 10 µg/mL and the pKi (HIV protease; Ki) was 6.00 to 8.00.

`O=C1N(Cc2ccccn2)C(Cc2ccccc2)C(O)C(O)C(Cc2ccccc2)N1Cc1ccccn1` (stereo not drawn) [Example 1AR] gave a pKi (HIV protease; Ki) of 6.00 to 8.00.

For `O=C1N(Cc2ccc(F)cc2)C(Cc2ccccc2)C(O)C(O)C(Cc2ccccc2)N1Cc1ccc(F)cc1` (stereo not drawn) [Example 2E], the IC90 (HIV-1 (RF) in MT-2 cells; [4]) was < 10 µg/mL, the IC90 (HIV-1 (RF) in MT-2 cells; [5]) was < 10 µg/mL and the pKi (HIV protease; Table 2A, read-out: Ki) was > 8.00. For the same molecule, the pKi (HIV protease; [6]) was > 8.00.

With `C=CCN1C(=O)N(CC=C)C(Cc2ccccc2)C(O)C(O)C1Cc1ccccc1` (stereo not drawn) [Example 1H] the pKi (HIV protease; Table 1a, read-out: Ki) was < 6.00.

In the case of `O=C1N(Cc2cccc(O)c2)C(C(F)Cc2ccccc2)[C@@H](O)[C@@H](Cc2ccccc2)N1Cc1cccc(O)c1` (stereo partly drawn) [Example 8F], the IC90 (HIV-1 (RF) in MT-2 cells; [3]) was < 10 µg/mL and the pKi (HIV protease; Ki) was 6.00 to 8.00.

With `O=C1N[C@H](C(O)Cc2ccccc2)[C@@H](O)[C@@H](Cc2ccccc2)N1Cc1ccccc1` (stereo partly drawn) [Example 8Q] the IC90 (HIV-1 (RF) in MT-2 cells; Table 1e) was “++ (++=10 to 100 μg/mL)” and the pKi (HIV protease; Table 1e, read-out: Ki) was 6.00 to 8.00.

Molecule `CC(C)CCCC(C)CCN1C(=O)NC(Cc2ccccc2)C(O)C(O)C1Cc1ccccc1` (stereo not drawn) [Example 1Q] has a pKi (HIV protease; Table 1a, read-out: Ki) of 6.00 to 8.00.

With `N#Cc1cccc(CN2C(=O)N(Cc3cccc(C#N)c3)[C@H](Cc3ccccc3)[C@H](O)C2CCc2ccccc2)c1` (stereo partly drawn) [Example 8O] the IC90 (HIV-1 (RF) in MT-2 cells; Table 1e) was “+++ (+++=<10 μg/mL)” and the pKi (HIV protease; Ki) was 6.00 to 8.00.

With `C=CCN1C(=O)N(CC=C)C(Cc2ccccc2)C(O)C(O)C1Cc1ccccc1` (stereo not drawn) [Example 1D] the pKi (HIV protease; Table 1a, read-out: Ki) was < 6.00.

With `O=C1NC(Cc2ccccc2)C(O)C2C(Cc3ccccc3)N12` (stereo not drawn) [Example 21A] the IC90 (HIV-1 (RF) in MT-2 cells; Table 2j) was “++/+ (The ++/+ is used in the cases where an IC90 was determined to be >50 μg/mL)” and the pKi (HIV protease; Table 2j, read-out: Ki) was < 6.00.

With `O=C1N(Cc2ccc(CO)cc2)[C@H](CCc2ccccc2)C[C@@H](Cc2ccccc2)N1Cc1ccc(CO)cc1` [Example 8AC] the IC90 (HIV-1 (RF) in MT-2 cells; [3]) was < 10 µg/mL and the pKi (HIV protease; Table 1e, read-out: Ki) was 6.00 to 8.00.

For `O=C1OC2C(O1)C(Cc1ccccc1)N(Cc1ccc3ccccc3c1)C(=O)N(Cc1ccc3ccccc3c1)C2Cc1ccccc1` (stereo not drawn) [Example 7L], the IC90 (HIV-1 (RF) in MT-2 cells; [1]) was > 100 µg/mL and the pKi (HIV protease; Ki) was 6.00 to 8.00.

`O=C1N(Cc2ccc3ccccc3c2)[C@H](Cc2ccccc2)C[C@@H](O)[C@@H](Cc2ccccc2)N1Cc1ccc2ccccc2c1` [Example 7T] was tested, and the IC90 (HIV-1 (RF) in MT-2 cells; [1]) was > 100 µg/mL and the pKi (HIV protease; [2]) was > 8.00.

Molecule `CC(C)C(NCCN1C(=O)N(CCO)C(Cc2ccccc2)C(O)C(O)C1Cc1ccccc1)C(=O)OCc1ccccc1` (stereo not drawn) [Example 1T] has a pKi (HIV protease; Table 1a, read-out: Ki) of 6.00 to 8.00.

`CCCN1C(=O)N(CCC)C(Cc2ccccc2)C(O)C(O)C1Cc1ccccc1` (stereo not drawn) [Example 1V] was tested, and the pKi (HIV protease; Ki) was > 8.00.
